These results are taken from ChEMBL document CHEMBL5143594 (Bioorg Med Chem Lett, 2022).

Holding throughout (set-up): species or system Severe acute respiratory syndrome coronavirus 2
Experiment [1] can be described thus: Inhibition of SARS-CoV-2 main protease G15S mutant expressed in Escherichia coli BL21 (DE3) using DABCYL-KTSAVLQ1SGFRKM-E(EDANS)-NH2 as substrate preincubated for 10 mins followed by substrate addition and measured after 5 mins by FRET analysis.
Experiment [2] can be described thus: Inhibition of SARS-CoV-2 main protease L205V mutant expressed in Escherichia coli BL21 (DE3) using DABCYL-KTSAVLQ1SGFRKM-E(EDANS)-NH2 as substrate preincubated for 10 mins followed by substrate addition and measured after 5 mins by FRET analysis.
Experiment [3] in a line: Inhibition of SARS-CoV-2 main protease P132H mutant expressed in Escherichia coli BL21 (DE3) using DABCYL-KTSAVLQ1SGFRKM-E(EDANS)-NH2 as substrate preincubated for 10 mins followed by substrate addition and measured after 5 mins by FRET analysis.
A short description of experiment [4]: Inhibition of SARS-CoV-2 main protease T21I mutant expressed in Escherichia coli BL21 (DE3) using DABCYL-KTSAVLQ1SGFRKM-E(EDANS)-NH2 as substrate preincubated for 10 mins followed by substrate addition and measured after 5 mins by FRET analysis.
Experiment [5] can be described thus: Inhibition of SARS-CoV-2 main protease L89F mutant expressed in Escherichia coli BL21 (DE3) using DABCYL-KTSAVLQ1SGFRKM-E(EDANS)-NH2 as substrate preincubated for 10 mins followed by substrate addition and measured after 5 mins by FRET analysis.
A short description of experiment [6]: Inhibition of SARS-CoV-2 main protease K90R mutant expressed in Escherichia coli BL21 (DE3) using DABCYL-KTSAVLQ1SGFRKM-E(EDANS)-NH2 as substrate preincubated for 10 mins followed by substrate addition and measured after 5 mins by FRET analysis.

As usually defined, the IC50 is the concentration that gives 50% inhibition. A lower IC50 goes with inhibition by little substance. As for `CC(C)(C)[C@H](NC(=O)C(F)(F)F)C(=O)N1C[C@H]2[C@@H]([C@H]1C(=O)N[C@H](C#N)C[C@@H]1CCNC1=O)C2(C)C`, the IC50 worked out at 10.3 nM in experiment [1]; 10.7 nM in experiment [2]; 12.2 nM in experiment [3]; 10.1 nM in experiment [4]; 10.5 nM in experiment [5]; 12.7 nM in experiment [6].
